Source: patent US20040204457A1, “Use of (+)-alpha-(2,3-dimethoxyphenyl)-1-[2-(4-fluorophenyl)ethyl]-4- piperidinemethanol or its prodrug in the treatment of symptoms of dementia and dopamine induced psychosis” (Aventis Pharmaceuticals Inc., priority 2000, published 2004)

Assays:
social memory = social memory test in mice (duration of social interaction, baseline vs retest); format: in vivo; conditions: 0.1 and 1 mg/kg
Description: Male CD-1 mice (30-35 grams) were first acclimated to the test room for approximately 1 hour. […] For the baseline test, unfamiliar pairs of mice were placed into a test chamber (plexiglas mouse cage with sawdust bedding). The duration of social interaction of the two mice (sniffing, anogenital exploration, nosing, grooming, licking, pawing, playing copulatory attempts) was observed and recorded for a period of five minutes and was registered cumulatively as total seconds of contact. Twenty-four hours later, the animals were given a retest without any drug treatment. At the retest, the now familiar partners from the baseline test were placed into the test chamber for a second confrontation and the duration of social interaction was again measured. Social memory was defined as a significant decrease in duration of social contact from baseline to retest. Testing took place in normal white light conditions between the hours of 8:30 am and 3:00 pm. The experimenter was blind to the treatment group until the completion of the experiment. The results represent combined data (n=36 per group total) from two studies. Data were analyzed using the Mann-Whitney test.

[1] = test system: scopolamine-stimulated locomotion; experiment: scopolamine-stimulated locomotion in rats (60 min activity counts); format: in vivo, rat; conditions: for antagonism of scopolamine-stimulated locomotion: 0.03-1 mg/kg
Description: Cholinergic deficiency states include various neurodegenerative diseases such as Alzheimer's disease, Dementia with Lewy Bodies, Charles Bonnet Syndrome, delirium and Parkinson's disease. Experimental Procedure. All procedures were conducted in normal white light conditions. Rats (1 per box) were first acclimated to test boxes (45×22×20 cm; clear polycarbonate with a plastic top) for 90 minutes. […] Testing commenced immediately. […] Each interruption of a photoelectric light beam was recorded as a single activity count by a microprocessor-based control system. Testing took place between 10:00 a.m. and 5:00 p.m., with all groups counterbalanced for time of testing. The experimenter was blind to treatment group during the experiment.

| Compound | effect on social memory (social memory) | antagonism of scopolamine-stimulated locomotion [1] | Group mean of 60 min activity count totals ([1]; M100907 0.03 + SCOP 0.75, intraperitoneal, n=6) | Group mean of 60 min activity count totals ([1]; M100907 0.1 + SCOP 0.75, intraperitoneal, n=6) | Group mean of 60 min activity count totals ([1]; M100907 0.3 + SCOP 0.75, intraperitoneal, n=6) | Group mean of 60 min activity count totals ([1]; M100907 1 + SCOP 0.75, intraperitoneal, n=6) | Group mean of 60 min activity count totals ([1]; risperidone 0.03 + SCOP 0.75, intraperitoneal, n=8) | Group mean of 60 min activity count totals ([1]; risperidone 0.1 + SCOP 0.75, intraperitoneal, n=8) | Group mean of 60 min activity count totals ([1]; risperidone 0.3 + SCOP 0.75, intraperitoneal, n=8) | Group mean of 60 min activity count totals ([1]; risperidone 1 + SCOP 0.75, intraperitoneal, n=8) | activity level relative to baseline (vehicle) level ([1]; risperidone at the two higher doses + scopolamine) |
| --- | --- | --- | --- | --- | --- | --- | --- | --- | --- | --- | --- |
| COc1cccc([C@H](O)C2CCN(CCc3ccc(F)cc3)CC2)c1OC [M100907, (+)-isomer of α-(2,3-dimethoxyphenyl)-1-[2-(4-fluorophenyl)ethyl]-4-piperidinemethanol] | significantly enhanced | significantly antagonized | 3181 | 2378 | 2087 | 2231 |  |  |  |  |  |
| Cc1nc2n(c(=O)c1CCN1CCC(c3noc4cc(F)ccc34)CC1)CCCC2 [risperidone] |  | significantly antagonized |  |  |  |  | 4615 | 4037 | 1795 | 772 | reduced activity below baseline level |
